Results on eight compounds are retold here after ChEMBL document CHEMBL1201862, “PubChem BioAssay data set” (2004).

Test systems include U-251; NCI-H226; OVCAR-8; OVCAR-5; MCF7; SF-295; OVCAR-4; SN12C; M14; IGROV-1; HCT-116; RPMI-8226; CCRF-CEM; SR; 786-0; NCI-H23; UO-31; T47D; UACC-257; MDA-N.
What all share (test): NCI tumour cell line growth inhibition, 48 h

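Cells were grown in 96-well plates and exposed to each compound for 48 hours at five concentrations; endpoints were interpolated linearly between bracketing concentrations, or set to the highest concentration if not reached. The concentration for 50% growth inhibition is given as GI50.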 Activity calls are given as the source filed them. Cut-off read from the data, not from the text of the source: active = GI50 up to about 1.1 µM and inactive = higher.

Take `Oc1c2cccc1Cc1cccc3c1OCCOCCOCCOCCOc1c(cccc1Cc1cccc(c1O)C3)C2`: the GI50 in the experiment with U-251 was > 100 µM (inactive); in the experiment with NCI-H226, 22.5 µM (inactive); with OVCAR-8, 85.7 µM (inactive); in the experiment on OVCAR-5, > 100 µM (inactive); with MCF7, > 100 µM (inactive); in the experiment with SF-295 it was 9.29 µM (inactive). Moreover, the GI50 in the experiment on OVCAR-4 is > 100 µM (inactive); with SN12C it was > 100 µM (inactive); in the experiment with M14 it was > 100 µM (inactive); with IGROV-1, > 100 µM (inactive); with HCT-116, 7.43 µM (inactive); with RPMI-8226, > 100 µM (inactive). Besides, the GI50 was > 100 µM (inactive) in the experiment on CCRF-CEM; 2.06 µM (inactive) in the experiment on SR; > 100 µM (inactive) in the experiment on 786-0; > 100 µM (inactive) in the experiment on NCI-H23; > 100 µM (inactive) in the experiment on UO-31; > 100 µM (inactive) in the experiment on T47D. Besides, in the experiment on UACC-257, the GI50 was 66.2 µM (inactive).
For `Cc1n[nH]c(=O)n1/N=C/c1ccc(F)cc1`, the GI50 in the experiment on OVCAR-8, with OVCAR-5, in the experiment with MDA-N, in the experiment with SF-295, in the experiment with OVCAR-4 and with SN12C was > 100 µM (inactive) throughout. In addition, the GI50 with M14, with HCT-116, with RPMI-8226, in the experiment with CCRF-CEM, in the experiment on SR and with 786-0 was > 100 µM (inactive) each time. Moreover, the GI50 in the experiment on NCI-H23, in the experiment with UO-31, in the experiment with T47D and in the experiment with UACC-257 was > 100 µM (inactive) in each case.
Take `CC1CC[C@@H](C(C)C)[C@H](Oc2nnc(C3OC(CO)C(O)C3O)o2)C1` (stereo partly specified): the GI50 with U-251, in the experiment on NCI-H226, with OVCAR-8, in the experiment on OVCAR-5, in the experiment on MCF7 and with MDA-N was > 100 µM (inactive) in each case. The GI50 with SF-295, in the experiment with OVCAR-4, with SN12C, in the experiment with HCT-116, in the experiment on RPMI-8226 and in the experiment on CCRF-CEM was > 100 µM (inactive) throughout. Besides, the GI50 in the experiment with 786-0, in the experiment on NCI-H23, in the experiment with UO-31, with T47D and in the experiment with UACC-257 was > 100 µM (inactive) throughout.
Regarding `COC(=O)C(=O)c1cc2ccccc2n1S(=O)(=O)c1ccccc1`, the GI50 in the experiment with U-251, in the experiment with OVCAR-8, in the experiment on OVCAR-5, in the experiment on MCF7, with MDA-N and in the experiment with SF-295 was > 100 µM (inactive) throughout. Besides, the GI50 in the experiment with OVCAR-4, in the experiment on SN12C, in the experiment on M14, with IGROV-1, in the experiment on HCT-116 and in the experiment on CCRF-CEM was > 100 µM (inactive) each time. Besides, the GI50 in the experiment with SR, in the experiment with 786-0, with NCI-H23, in the experiment with UO-31, with T47D and with UACC-257 was > 100 µM (inactive) in each case.
Regarding `Cc1occc1/C(S)=N\c1ccc(Cl)c(C(=O)OCC2CC2)c1`, the GI50 was 95.3 µM (inactive) in the experiment on U-251; 53.2 µM (inactive) in the experiment on NCI-H226; 39.9 µM (inactive) in the experiment on OVCAR-8; > 100 µM (inactive) in the experiment with OVCAR-5; 38.5 µM (inactive) in the experiment on MCF7; 41.6 µM (inactive) in the experiment on MDA-N. Besides, the GI50 was 29.4 µM (inactive) with SF-295; 32 µM (inactive) in the experiment with OVCAR-4; 34.9 µM (inactive) in the experiment on SN12C; 85.5 µM (inactive) in the experiment on M14; 37.3 µM (inactive) in the experiment on IGROV-1; 43.9 µM (inactive) with HCT-116. The GI50 in the experiment with RPMI-8226 is 23.1 µM (inactive); with CCRF-CEM, 20.7 µM (inactive); in the experiment with 786-0 it was 44.9 µM (inactive); in the experiment on NCI-H23 it was 58.6 µM (inactive); in the experiment with UO-31 it was 58.5 µM (inactive); in the experiment with T47D it was 35 µM (inactive). Moreover, the GI50 in the experiment with UACC-257 was 22.3 µM (inactive).
Turning to `O=C(/C=C1\Nc2ccccc2N\C1=C\C(=O)c1ccc(Cl)cc1)c1ccccc1`, the GI50 in the experiment with U-251 was 23.4 µM (inactive); in the experiment on NCI-H226, > 100 µM (inactive); with OVCAR-8 it was 23.9 µM (inactive); with OVCAR-5, 64 µM (inactive); with MCF7 it was 38.7 µM (inactive); in the experiment on SF-295, 40.3 µM (inactive). Also, the GI50 with OVCAR-4 was 31.3 µM (inactive); in the experiment with SN12C, 47.2 µM (inactive); in the experiment with M14, 18.3 µM (inactive); with IGROV-1 it was > 100 µM (inactive); in the experiment on HCT-116 it was 38.3 µM (inactive); in the experiment with RPMI-8226, 39.4 µM (inactive). Also, the GI50 in the experiment on CCRF-CEM is 10.4 µM (inactive); in the experiment on SR, 20.6 µM (inactive); in the experiment with 786-0, 26 µM (inactive); in the experiment on NCI-H23, 75 µM (inactive); in the experiment with UO-31, 21.4 µM (inactive); with T47D, 16 µM (inactive). Besides, the GI50 in the experiment on UACC-257 was 53.8 µM (inactive).
In the case of `CC[C@](O)(C(=O)O)c1cc2n(c(=O)c1CO)Cc1cc3ccccc3nc1-2`, the GI50 was 0.025 µM (active) with U-251; 0.0566 µM (active) with OVCAR-5; 0.061 µM (active) in the experiment with MCF7; 0.0373 µM (active) with MDA-N; 0.025 µM (active) with SF-295; 0.214 µM (active) in the experiment with OVCAR-4. Moreover, the GI50 with SN12C was 0.025 µM (active); with M14, 0.00292 µM (active); in the experiment on IGROV-1 it was 0.0652 µM (active); with HCT-116, 0.0308 µM (active); in the experiment on CCRF-CEM, 0.025 µM (active); in the experiment with SR, 0.01 µM (active). Also, the GI50 with 786-0 is 0.00366 µM (active); in the experiment with NCI-H23 it was 0.025 µM (active); in the experiment on UO-31 it was 0.0372 µM (active); in the experiment on T47D, 0.0324 µM (active).
With `Fc1ccc(Oc2nc3ccc(C(F)(F)F)cc3nc2-c2ccccc2)cc1`, the GI50 with OVCAR-8 is > 100 µM (inactive); in the experiment on OVCAR-5, > 100 µM (inactive); in the experiment with MCF7 it was 28.8 µM (inactive); in the experiment with MDA-N it was 99.5 µM (inactive); with SF-295, 37.7 µM (inactive); in the experiment with OVCAR-4 it was 60.5 µM (inactive). Besides, the GI50 in the experiment with SN12C is > 100 µM (inactive); in the experiment with M14, 50.4 µM (inactive); in the experiment on IGROV-1, > 100 µM (inactive); in the experiment with HCT-116, 85.1 µM (inactive); in the experiment with CCRF-CEM, > 10 µM (inactive); with SR, 24.3 µM (inactive). Moreover, the GI50 in the experiment with 786-0 is 61.7 µM (inactive); with NCI-H23, 77.3 µM (inactive); with UO-31, 44.3 µM (inactive); with T47D it was 99.3 µM (inactive); in the experiment with UACC-257, 47.2 µM (inactive).
